Read-outs that look alike come from different tables or passages of the source.
Tests used:
[1] = tested on: MCF7 breast; assay: MTT cytotoxicity assay, MCF7; format: cell-based; details: Homo sapiens; for IC50: 24 h, MCF7 Breast, read-out: ED50 values of cytotoxicity
Method: (§1) Briefly, a three day MTT cytotoxicity assay was performed, which is based on the principle of uptake of MTT (3-(4,5-dimethylthiazol-2-yl)-2,5-diphenyl tetrazolium bromide), a tetrazolium salt, by the metabolically active cells where it is metabolized by active mitochondria into a blue colored formazan product that is read spectrophotometrically. MTT was dissolved in phosphate buffered saline with a pH of 7.4 to obtain an MTT concentration of 5 mg/ml; the resulting mixture was filtered through a 0.22 micron filter to sterilize and remove a small amount of insoluble residue. For each type of tumor cell, 20,000 to 50,000 cells were seeded in a 96-well culture plate and incubated with the combination in a CO2 incubator for 24 hours. […] After incubating for one hour, the plate was read spectrophotometrically at 540 nm and the percentage cytotoxicity calculated.

[2] = tested on: ECV304 cells; assay: Inhibition of tube-like-structure (TLS) formation on Matrigel; format: cell-based; design: key: significant (++); marginal (+); no effect (−); details: 24 hours
Method: Matrigel (70 ul) was placed into each well of a 96-well culture plate at 4° C. and was allowed to polymerize by incubation at 37° C. for 30 min. ECV304 (1×10^4) cells were seeded on the Matrigel in 200 ul DMEM supplemented with 10% FBS. The compounds to be tested were added to marked wells at selected non-cytotoxic concentrations and incubated at 37° C. for 24 hours. Five different phase-contrast microscopic fields (4X) were viewed and tube-like structure formation was evaluated qualatively by observing formation of lumen (sprouting) and extent of formation of branches and loops by sprouts (intususception). The inhibition of TLS caused by the addition of the test compound was recorded as significant (++), marginal (+), or no effect (−) as compared to the control TLS formation. A summary of the results is given below in the form of a table indicating the concentrations tested.

[3] = tested on: 293 Kidney; assay: MTT cytotoxicity assay, 293; format: cell-based; details: Homo sapiens, 24 h, read-out: ED50 values of cytotoxicity
Method: as §1

[4] = tested on: Swiss albino mice; format: in vivo; details: oral; for safe dose: Swiss albino mice weighing 25 grams; for Mortality: observed 15 days
[5] = tested on: PA 1 Ovary; assay: MTT cytotoxicity assay, PA 1; format: cell-based; details: Homo sapiens, 24 h; PA 1 Ovarian; read-out: ED50 values of cytotoxicity
Method: as §1

[6] = tested on: PTC (Colon) Tumor Xenografts; assay: Antitumor activity on PTC (Colon) tumor xenografts in nude mice; format: in vivo, Balb/c athymic mice; details: 10 mg orally once a day for 15 days; at the end of treatment
Method: PTC (colon) tumor xenografts were initiated in Balb/c athymic mice by subcutaneous inoculation of a single cell suspension of PTC cells (15×10^6 cells/100 μL). […] The anti-tumor activity was monitored by measuring tumor volumes every fourth day and calculating volumes using the formula 0.4×W^2×L(W=smaller dia, L=larger dia,).

[7] = tested on: KB Oral; assay: MTT cytotoxicity assay, KB; format: cell-based; details: Homo sapiens, 24 h, read-out: ED50 values of cytotoxicity
Method: as §1

[8] = tested on: DU145 Prostate; assay: MTT cytotoxicity assay, DU145; format: cell-based; details: Homo sapiens, DU-145, 24 h, read-out: ED50 values of cytotoxicity
Method: as §1

[9] = tested on: Miapaca2 Pancreas; assay: MTT cytotoxicity assay, Miapaca2; format: cell-based; details: Homo sapiens, MIA PaCa-2, 24 h, read-out: ED50 values of cytotoxicity
Method: as §1

[10] = tested on: Glyceraldehyde 3 phosphate dehydrogenase; assay: Glyceraldehyde 3 phosphate dehydrogenase enzyme activity assay; format: biochemical
Method: The activity of Glyceraldehyde 3 phosphate dehydrogenase enzyme was assayed by the methods detailed earlier. (Krebs E, 1955, Methods in Enzymology, 1 407 and Velick S, 1955, Methods in Enzymology, 1, 401). To monitor the reaction, the increase in absorbance at 340 nm due to the formation of NADH from NAD was recorded at 15 seconds intervals, the values remaining almost linear for 3 minutes. The assay mixture was in a total volume of 1.5 ml containing 1.3 ml of Sodium pyrophosphate buffer (0.015M; pH 8.5), containing sodium arsenate (0.03M), 0.05 ml of NAD (7.5 mM), 0.05 ml of DTT (0.1M) and 0.05 ml of DL- glyceraldehyde 3 phosphate (7 mM). The enzyme was diluted 1:100 immediately prior to use in Sodium pyrophosphate buffer (0.015M) (pH 8.5) containing sodium arsenate (0.03M). The reaction was initiated by the addition of 0.05 ml of glyceraldehyde 3 phosphate dehydrogenase enzyme. The test mixture contained methyl glyoxal or its conjugates in concentrations ranging from 0.5 mM to 5 mM. Methyl glyoxal and its conjugates were dissolved in 2.5% ethanol and water. The control experiments were carried out in the absence of the enzyme or the substrate under identical conditions. One unit of activity of glyceraldehyde 3 phosphate dehydrogenase is defined as the amount of enzyme required to convert lumol of NAD to NADH per minute under conditions defined as above.

[11] = tested on: U87MG Glioblastoma; assay: MTT cytotoxicity assay, U87MG; format: cell-based; details: Homo sapiens, U-87 MG, 24 h, read-out: ED50 values of cytotoxicity
Method: as §1

[12] = tested on: PTC Colon; assay: MTT cytotoxicity assay, PTC; format: cell-based; details: Homo sapiens, 24 h, read-out: ED50 values of cytotoxicity
Method: as §1

[13] = tested on: INT 407 Intestine; assay: MTT cytotoxicity assay, INT 407; format: cell-based; details: Homo sapiens, 24 h, read-out: ED50 values of cytotoxicity
Method: as §1

[14] = tested on: MOLT 4 Leukemia; assay: MTT cytotoxicity assay, MOLT 4; format: cell-based; details: Homo sapiens, 24 h, read-out: ED50 values of cytotoxicity
Method: as §1

[15] = tested on: Hep2 Larynx; assay: MTT cytotoxicity assay, Hep2; format: cell-based; details: Homo sapiens, HEp-2, 24 h, read-out: ED50 values of cytotoxicity
Method: as §1

[16] = tested on: L132 Lung; assay: MTT cytotoxicity assay, L132; format: cell-based; details: Homo sapiens, 24 h, read-out: ED50 values of cytotoxicity
Method: as §1

[17] = dosage level 2.5X (X=400 mg/kg B.Wt.)
[18] = dosage level 3.5X (X=400 mg/kg B.Wt.)
[19] = dosage level 5X (X=400 mg/kg B.Wt.)
[20] = dosage level 7.5X (X=400 mg/kg B.Wt.)
[21] = dosage level 10X (X=400 mg/kg B.Wt.)

Row | Compound | TLS Inhibition (Qualitative) ([2]; 1.2 mM) | IC50 [3] [µM] | safe dose [4] [mg] | Mortality [4, 17] | Mortality [4, 18] | Mortality [4, 19] | Mortality [4, 20] | Mortality [4, 21] | IC50 [5] [µM] | IC50 [7] [µM] | Percent Inhibition Of Glyceraldehyde 3 Phosphate Dehydrogenase Activity ([10]; 0.5 mM) [%] | Percent Inhibition Of Glyceraldehyde 3 Phosphate Dehydrogenase Activity ([10]; 1 mM) [%] | Percent Inhibition Of Glyceraldehyde 3 Phosphate Dehydrogenase Activity ([10]; 5 mM) [%] | also measured
1 | COC(=O)C1CCC(=O)N1C(O)C(C)=O (stereo not shown) [MGC-1, N-(1-Hydroxy-2-ketopropyl)-methylpyroglutamate] |  |  |  |  |  |  |  |  |  |  |  |  |  | cytotoxicity at 1000 µM ([1]; MCF7, 1.0 mM, read-out: Percent cytotoxicity): 0%; cytotoxicity at 5000 µM ([1]; MCF7, 5 mM, read-out: Percent cytotoxicity): 12.9 ± 2.1%
2 | CCCCOC(=O)C1CCC(=O)N1C(O)C(C)=O (stereo not shown) [MGC-2, N-(1-Hydroxy-2-ketopropyl)-butylpyroglutamate] | + | 2000 ± 800 | 75 | 0/10 | 0/10 | 0/10 | 0/10 | 10/10 |  |  |  |  |  | 
3 | CC(=O)C(O)N1C(=O)CCC1C(=O)OCc1ccccc1 (stereo not shown) [MGC-3, N-(1-Hydroxy-2-ketopropyl)-benzylpyroglutamate] |  |  |  |  |  |  |  |  | 1800 ± 600 |  |  |  |  | TLS Inhibition (Qualitative) ([2]; 2 mM): +; TLS Inhibition (Qualitative) ([2]; 2.5 mM): ++
4 | COC(=O)C1CCC(=O)N1C(OC(C)=O)C(C)=O (stereo not shown) [MGC-4, N-(1-Acetoxy-2-ketopropyl)-methylpyroglutamate] | − |  | 100 | 0/10 | 0/10 | 0/10 | 0/10 | 0/10 |  |  |  |  |  | average tumor volume as compared to average tumor volume of untreated control tumors [6]: 41%
5 | CCCCOC(=O)C1CCC(=O)N1C(OC(C)=O)C(C)=O (stereo not shown) [MGC-5, N-(1-Acetoxy-2-ketopropyl)-butylpyroglutamate] | + | 1900 ± 700 |  |  |  |  |  |  |  | 2000 ± 700 |  |  |  | 
6 | CC(=O)OC(C(C)=O)N1C(=O)CCC1C(=O)OCc1ccccc1 (stereo not drawn) [MGC-6, N-(l-acetoxy-2-ketopropyl)-benzylpyroglutamate] | − | 2900 ± 1000 | 75 | 0/10 | 0/10 | 0/10 | 0/10 | 10/10 | 1400 ± 200 | 2950 ± 300 | 28.3 ± 2.5 | 29.4 ± 3.0 | 30.1 ± 4.0 | IC50 [8]: 1900 ± 1000 µM; IC50 [9]: 3900 ± 1000 µM; IC50 [11]: 4780 ± 600 µM; IC50 [12]: 1600 ± 400 µM; IC50 [13]: > 5000 µM; IC50 [1]: > 5000 µM; IC50 [14]: 1300 ± 300 µM; IC50 [15]: 1200 ± 200 µM; IC50 [16]: 3800 ± 1000 µM
7 | CCOC(=O)C1CCC(=O)N1C(O)C(C)=O (stereo not shown) [MGC-7, N-(1-Hydroxy-2-ketopropyl)-ethylpyroglutamate] |  |  | 100 | 0/10 | 0/10 | 0/10 | 0/10 | 0/10 |  |  |  |  |  | 
8 | CCOC(=O)C1CCC(=O)N1C(OC(C)=O)C(C)=O (stereo not shown) [MGC-8, N-(1-Acetoxy-2-ketopropyl)-ethylpyroglutarnate] |  |  | 100 | 0/10 | 0/10 | 0/10 | 0/10 | 0/10 | 1800 ± 700 | 1950 ± 800 | 32.8 ± 1.2 | 40.1 ± 2.2 | 38.2 ± 1.9 | IC50 [8]: 1300 ± 300 µM; IC50 [11]: 1880 ± 700 µM; IC50 [12]: 2750 ± 400 µM; IC50 [13]: 550 ± 300 µM; IC50 [1]: 2400 ± 1200 µM; IC50 [14]: 2900 ± 500 µM; IC50 [15]: 2100 ± 600 µM; IC50 [16]: > 5000 µM
9 | CC(=O)C=O [Methylglyoxal, reference compound] |  |  |  |  |  |  |  |  |  |  | 15 ± 4 | 18 ± 3.4 | 20 ± 4.0 | TLS Inhibition (Qualitative) ([2]; 0.5 mM): +; TLS Inhibition (Qualitative) ([2]; 0.8 mM): +; TLS Inhibition (Qualitative) ([2]; 1 mM): ++; Glyceraldehyde 3 phosphate dehydrogenase enzyme activity inhibition (in words) ([10]; concentration ranging from 0.5 mM to 5 mM): inhibited significantly; average tumor volume as compared to average tumor volume of untreated control tumors [6]: 50%

From patent US6613793B2 (Dabur Research Foundation, priority 2001, dated 2003)
